The results in this text go back to patent publication US20230364091A1, “COMPOSITIONS AND METHODS FOR TREATING CANCER” (The Regents of the University of California, priority 2020, published 2023).

The nature of data set [1]: Brain penetration in non-tumor bearing mice. The data set is classed as in vivo. As to conditions: mouse, brain and plasma, unbound ratio of drug in brain to plasma. An excerpt:
Disclosed in table 5 Brain to plasma percentages and unbound ratios of drugs in brain to plasma of indicated drugs in non-tumor bearing mice

For data set [2], the system named is PC-9 cells (EGFR exon 19 deletion). Kind of data set: Cellular IC50, Cell Titer Glo viability, PC-9. The format is cell-based. As to conditions: Homo sapiens, 72 hours. The method, then:
(§1) PC-9 cells were purchased from Sigma, and HCC827 cells were purchased from ATCC. Each cell line was maintained at ≤passage 10 at 37° C. in a humidified incubator with 5% CO2. Cells were plated in 96-well optical bottom plates (Corning #3903; Corning, NY) at a cell density of 5,000 cells/well, allowed to adhere for minimally 16 hours, and subsequently treated with the test compounds using an 11-point serial dilution (1:3) in duplicate using an HP D300 digital 4 dispenser (Tecan, Morrisville, NC). 72 hours after addition of the test compounds, Cell Titer Glo reagent (Promega, Madison, WI) was added to the plate according to manufacturer's protocol and luminescence measured using a Spectramax M5 (Molecular Devices, San Jose, CA). IC50s were calculated using the 4-parameter variable slope curve fit using the equation below where, Y and X are variables plotted, Top and Bottom are plateaus in the units of the Y axis, Log IC50 is the Log transformation of the IC50 value and HillSlope is the Hill Slope for the curve and describes curve steepness (GraphPad Prism, version 6.07, GraphPad Software, Inc.). Y=Bottom+(Top−Bottom)/(1+10((Log IC50−X)*HillSlope)))

For data set [3], the system named is HCC827 cells (EGFR exon 19 deletion). Kind of data set: Cellular IC50, Cell Titer Glo viability, HCC827. The format is cell-based. As to conditions: Homo sapiens, 72 hours. How it is done: as §1
In general terms: In ATP-based viability assays light output follows the ATP content of the culture.

In general, IC50 refers to the concentration that gives 50% inhibition. A high value points to weaker potency in that assay.

`Fc1c(Br)cccc1Nc1ncnc2cc3c(cc12)OC(CN1CCOCC1)CO3` (racemic) [JGK063, (±)-N-(3-Bromo-2-fluorophenyl)-7-[(morpholin-4-yl)methyl]-7,8-dihydro[1,4]dioxino[2,3-g]quinazolin-4-amine]: the Kp uu in data set [1] is 0.341.

With `CN(C)CC1COc2cc3ncnc(Nc4cccc(Br)c4F)c3cc2O1` (racemic) [JGK066, (±)-N-(3-Bromo-2-fluorophenyl)-7-[(dimethylamino)methyl]-7,8-dihydro[1,4]dioxino[2,3-g]quinazolin-4-amine], the Kp uu in data set [1] amounted to 1.18.

Turning to `CN1CCN(CC2COc3cc4ncnc(Nc5cccc(Br)c5F)c4cc3O2)CC1` (racemic) [JGK068, (±)-N-(3-Bromo-2-fluorophenyl)-7-[(4-methylpiperazin-1-yl)methyl]-7,8-dihydro[1,4]dioxino[2,3-g]quinazolin-4-amine], the Kp uu in data set [1] stood at 1.18.

Take `Fc1c(Br)cccc1Nc1ncnc2cc3c(cc12)O[C@@H](CN1CCOCC1)CO3` [JCN063S, (S)—N-(3-bromo-2-fluorophenyl)-7-(morpholinomethyl)-7,8-dihydro-[1,4]dioxino[2,3-g]quinazolin-4-amine]: the IC50 in data set [2] came out at 0.0217 µM; in data set [3] it was 0.0127 µM.

Take `Fc1c(Br)cccc1Nc1ncnc2cc3c(cc12)O[C@@H](CN1CCCCC1)CO3` [JCN065S, (S)—N-(3-bromo-2-fluorophenyl)-7-(piperidin-1-ylmethyl)-7,8-dihydro-[1,4]dioxino[2,3-g]quinazolin-4-amine]: the IC50 in data set [2] was 0.0539 µM; in data set [3] it was 0.0495 µM.

`Fc1c(Br)cccc1Nc1ncnc2cc3c(cc12)O[C@@H](CN1CCCC1)CO3` [JCN067S, (S)—N-(3-bromo-2-fluorophenyl)-7-(pyrrolidin-1-ylmethyl)-7,8-dihydro-[1,4]dioxino[2,3-g]quinazolin-4-amine]: the results for the IC50 in data set [2] and in data set [3] were 0.0362 µM and 0.0257 µM, respectively.

In the case of `CN1CCN(C[C@H]2COc3cc4ncnc(Nc5cccc(Br)c5F)c4cc3O2)CC1` [JGK068S, (7S)—N-(3-Bromo-2-fluorophenyl)-7-[(4-methylpiperazin-1-yl)methyl]-7,8-dihydro[1,4]dioxino [2,3-g]quinazolin-4-amine], the Kp uu in data set [1] was 1.18.

On to `Fc1c(Br)cccc1Nc1ncnc2cc3c(cc12)O[C@@H](CN1CCNCC1)CO3` [JGK083S, (7S)—N-(3-Bromo-2-fluorophenyl)-7-[(piperazin-1-yl)methyl]-7,8-dihydro[1,4]dioxino [2,3-g]quinazolin-4-amine], for which, in data set [1], the Kp uu is 0.798.
